These results are taken from ChEMBL document CHEMBL4359858, “Potently inhibiting cancer cell migration with novel 3H-pyrazolo[4,3-f]quinoline boronic acid ROCK inhibitors” (Eur J Med Chem, 2019).

The target in data set [1] is T1, Rho-associated protein kinase 2 (Homo sapiens, UniProt O75116). Nature of the data set: Inhibition of active ROCK2 (R11-11G) (unknown origin) at 100 nM using S6K as substrate incubated for 3 hrs by ADP-Glo kinase assay relative to control.
Target sequence in this assay (O75116 whole entry, looked up): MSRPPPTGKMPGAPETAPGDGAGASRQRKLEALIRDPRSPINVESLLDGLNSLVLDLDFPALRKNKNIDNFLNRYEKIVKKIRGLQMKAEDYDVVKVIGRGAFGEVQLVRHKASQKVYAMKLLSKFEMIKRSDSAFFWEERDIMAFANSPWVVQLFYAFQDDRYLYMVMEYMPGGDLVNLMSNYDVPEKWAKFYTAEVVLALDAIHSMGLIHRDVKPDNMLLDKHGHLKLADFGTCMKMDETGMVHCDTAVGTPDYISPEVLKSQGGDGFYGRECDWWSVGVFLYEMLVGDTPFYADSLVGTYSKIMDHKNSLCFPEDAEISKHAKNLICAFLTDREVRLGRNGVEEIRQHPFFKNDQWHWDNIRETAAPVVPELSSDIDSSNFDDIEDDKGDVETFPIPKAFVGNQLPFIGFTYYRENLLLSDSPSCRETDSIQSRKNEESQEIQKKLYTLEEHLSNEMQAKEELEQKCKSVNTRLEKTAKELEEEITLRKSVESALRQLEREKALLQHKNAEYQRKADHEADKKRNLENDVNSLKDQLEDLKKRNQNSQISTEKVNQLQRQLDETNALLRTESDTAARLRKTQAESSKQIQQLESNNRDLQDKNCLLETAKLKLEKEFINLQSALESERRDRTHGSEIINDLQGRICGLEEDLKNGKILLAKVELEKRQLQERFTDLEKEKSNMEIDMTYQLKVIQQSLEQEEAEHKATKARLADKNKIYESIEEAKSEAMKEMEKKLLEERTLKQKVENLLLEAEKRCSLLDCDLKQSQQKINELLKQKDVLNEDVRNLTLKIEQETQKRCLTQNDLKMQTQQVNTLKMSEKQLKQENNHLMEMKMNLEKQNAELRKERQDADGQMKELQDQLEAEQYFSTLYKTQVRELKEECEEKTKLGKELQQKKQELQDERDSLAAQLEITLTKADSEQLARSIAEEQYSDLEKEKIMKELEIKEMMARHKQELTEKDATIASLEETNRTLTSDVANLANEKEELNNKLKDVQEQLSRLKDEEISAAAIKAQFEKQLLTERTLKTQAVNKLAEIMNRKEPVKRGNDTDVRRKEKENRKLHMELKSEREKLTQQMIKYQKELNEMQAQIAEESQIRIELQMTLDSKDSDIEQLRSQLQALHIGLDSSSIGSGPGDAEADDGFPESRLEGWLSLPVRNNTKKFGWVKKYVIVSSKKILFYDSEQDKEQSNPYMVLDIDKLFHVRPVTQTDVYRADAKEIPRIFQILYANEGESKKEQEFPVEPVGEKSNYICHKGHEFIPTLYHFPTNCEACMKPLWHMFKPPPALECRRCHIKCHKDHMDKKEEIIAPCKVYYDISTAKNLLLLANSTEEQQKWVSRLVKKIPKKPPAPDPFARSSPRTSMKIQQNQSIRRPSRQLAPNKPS
The test system of data set [2] is MDA-MB-231. Kind of data set: Inhibition of cell migration of human MDA-MB-231 cells at 1 uM incubated for 24 hrs. Format: functional, cell-based.
Data set [3] has as its system MDA-MB-231. Nature of the data set: Cytotoxicity against human MDA-MB-231 cells assessed as reduction in cell viability at 5 uM incubated for 12 hrs by CellTiter-Blue assay. The conditions noted are these: mda-mb-231, 12 h. In kind it is cell-based.
For data set [4], the target named is T2, Rho-associated protein kinase 1 (Homo sapiens, UniProt Q13464). Nature of the data set: Inhibition of recombinant human GST-tagged ROCK1 (1 to 535 residues) using myelin basic protein as substrate incubated for 30 mins by ADP-Glo assay.
T2 sequence (Q13464 whole entry, the tested form may be a part): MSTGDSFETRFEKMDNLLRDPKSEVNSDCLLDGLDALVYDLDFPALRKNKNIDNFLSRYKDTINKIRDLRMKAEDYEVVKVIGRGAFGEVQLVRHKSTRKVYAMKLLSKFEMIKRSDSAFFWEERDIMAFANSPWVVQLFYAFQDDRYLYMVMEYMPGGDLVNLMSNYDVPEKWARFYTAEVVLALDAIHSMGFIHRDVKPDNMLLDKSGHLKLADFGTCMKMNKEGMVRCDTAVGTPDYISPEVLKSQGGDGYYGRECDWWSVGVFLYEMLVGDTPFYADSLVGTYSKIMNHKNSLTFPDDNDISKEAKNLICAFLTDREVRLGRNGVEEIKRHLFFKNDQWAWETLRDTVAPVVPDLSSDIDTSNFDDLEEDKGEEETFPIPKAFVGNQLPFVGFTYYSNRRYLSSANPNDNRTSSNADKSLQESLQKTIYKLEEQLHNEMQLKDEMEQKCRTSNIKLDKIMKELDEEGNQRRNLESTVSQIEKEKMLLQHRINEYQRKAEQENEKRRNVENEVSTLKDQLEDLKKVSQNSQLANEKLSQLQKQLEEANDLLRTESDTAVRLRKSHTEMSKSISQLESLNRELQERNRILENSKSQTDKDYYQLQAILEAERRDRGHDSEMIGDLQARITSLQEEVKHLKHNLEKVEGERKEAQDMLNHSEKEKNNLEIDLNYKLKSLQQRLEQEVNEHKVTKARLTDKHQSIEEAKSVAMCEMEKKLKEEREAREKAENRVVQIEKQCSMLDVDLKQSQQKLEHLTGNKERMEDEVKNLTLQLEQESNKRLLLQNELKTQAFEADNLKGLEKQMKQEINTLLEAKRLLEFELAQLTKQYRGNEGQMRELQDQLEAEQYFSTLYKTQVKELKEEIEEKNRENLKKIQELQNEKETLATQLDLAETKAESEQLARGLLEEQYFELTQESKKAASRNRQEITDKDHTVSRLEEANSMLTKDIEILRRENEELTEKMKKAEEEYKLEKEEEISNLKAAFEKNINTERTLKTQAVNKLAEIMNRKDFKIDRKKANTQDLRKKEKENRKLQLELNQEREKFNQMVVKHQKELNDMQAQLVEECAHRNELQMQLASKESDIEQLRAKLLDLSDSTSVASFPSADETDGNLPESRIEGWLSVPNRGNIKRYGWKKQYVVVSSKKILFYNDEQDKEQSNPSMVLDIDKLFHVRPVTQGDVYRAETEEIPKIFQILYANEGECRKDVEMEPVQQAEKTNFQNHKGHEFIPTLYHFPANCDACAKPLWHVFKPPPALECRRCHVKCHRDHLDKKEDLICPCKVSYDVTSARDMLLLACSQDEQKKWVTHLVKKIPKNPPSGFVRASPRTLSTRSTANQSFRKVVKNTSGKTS
The target of data set [5] is T1, Rho-associated protein kinase 2. Kind of data set: Inhibition of recombinant human GST-tagged ROCK2 (1 to 552 residues) using myelin basic protein as substrate incubated for 30 mins by ADP-Glo assay.
Target sequence in this assay (O75116 whole entry): as the sequence (O75116 whole entry, looked up) above
Data set [6] shares this target. Nature of the data set: Inhibition of human ROCK2 using KEAKEKRQEQIAKRRRLSSLRASTSKSGGSQK as substrate incubated for 20 mins in presence of [gamma33P]ATP by filter binding method.
Target sequence in this assay (O75116 whole entry): as the sequence (O75116 whole entry, looked up) above
For data set [7], the target named is T2, Rho-associated protein kinase 1. Kind of data set: Inhibition of human ROCK1 using KEAKEKRQEQIAKRRRLSSLRASTSKSGGSQK as substrate incubated for 20 mins in presence of [gamma33P]ATP by filter binding method.
For data set [8] the target is unchanged. Kind of data set: Binding affinity to ROCK1 (unknown origin) incubated for 1 hrs by qPCR analysis.
In data set [9] the target is T1, Rho-associated protein kinase 2. Nature of the data set: Binding affinity to ROCK2 (unknown origin) incubated for 1 hr by qPCR analysis.
Target sequence in this assay (O75116 whole entry): as the sequence (O75116 whole entry, looked up) above
The nature of data set [10]: Cytotoxicity against human MDA-MB-231 cells assessed as cell viability at 10 uM incubated for 12 hrs by CellTiter-Blue assay relative to control. Format: cell-based. The conditions noted are these: read-out: Activity.
Data set [11] can be described thus: Cytotoxicity against human MDA-MB-231 cells assessed as cell viability at 10 uM incubated for 24 hrs by CellTiter-Blue assay relative to control. Format: cell-based. The conditions noted are these: read-out: Activity.

The source made the active and inactive calls. The rule behind the calls is not given here.

In the case of `COc1c(B(O)O)cccc1-c1nc2ccc3[nH]nc(C)c3c2c2c1CCC2`, the inhibition in data set [1] came out at 32%. On the same count and under the same terms, to `OB(O)c1cccc(-c2nc3ccc4[nH]ncc4c3cc2-c2ccc(F)c(Cl)c2)c1F` belongs “Active”. For the molecule `Cc1ccc(C(=O)OCc2ccc([C@@H](CN)C(=O)Nc3ccc4cnccc4c3)cc2)c(C)c1`, the inhibition entry with MDA-MB-231 [2] was “inactive”. The Activity result in the data set on MDA-MB-231 [3] is “Toxic”. For the molecule `COc1c(B(O)O)cccc1-c1nc2ccc3[nH]ncc3c2cc1-c1ccc(Cl)cc1`, the inhibition entry in data set [1] is “Active”.

Consider `OB(O)c1ccc(-c2nc3ccc4[nH]ncc4c3c3c2CCCC3)o1`, for which the inhibition result in data set [1] was “Active”. Same read-out and setting: to `Cc1n[nH]c2ccc3nc(-c4sccc4B(O)O)c4c(c3c12)CCC4` belongs “Active”. The same measure, in the same setting: to `COc1c(B(O)O)cccc1-c1nc2ccc3[nH]ncc3c2cc1-c1ccncc1` belongs “Active”.

As to `OB(O)c1cccc(-c2nc3ccc4[nH]ncc4c3cc2-c2ccccc2)c1F`, the inhibition result in data set [1] was “Active”. With `COc1c(B(O)O)cccc1-c1cc(-c2ccc(F)c(Cl)c2)c2c(ccc3[nH]ncc32)n1`, the inhibition in data set [1] lay within 10 to 15%.

With `OB(O)c1csc(-c2nc3ccc4[nH]ncc4c3c3c2CCCC3)c1`, the inhibition result in data set [1] is “Active”. Same read-out and setting: the same measure for `OB(O)c1ccc(-c2cc(-c3ccc(F)c(Cl)c3)c3c(ccc4[nH]ncc43)n2)cc1F`: 10 to 15%; for `OB(O)c1ccc(-c2nc3ccc4[nH]ncc4c3c3c2CCCC3)cc1`: “Active”.

In the case of `OB(O)c1cccc(-c2nc3ccc4[nH]ncc4c3c3c2CCCC3)c1F`, in data set [1], the inhibition result is “Active”.

`COc1c(B(O)O)cccc1-c1nc2ccc3[nH]ncc3c2cc1C`: the inhibition result in [1] is “Active”. Turning to `OB(O)c1ccc(-c2nc3ccc4[nH]ncc4c3c3c2CCCC3)cc1F`, the inhibition result in [1] was “Active”. On to `COc1nc(N[C@H]2CC[C@H](N)CC2)c(F)cc1C(N)=O`, for which the IC50 in [4] is 10 nM; in data set [5] it was 7.8 nM.

On to `COc1c(B(O)O)cccc1-c1nc2ccc3[nH]ncc3c2c2c1CCC2`, for which the inhibition in data set [1] amounted to 59%. The IC50 in [6] worked out at 0.51 nM; in data set [7] it was 1.22 nM. Moreover, the Kd lay in the range of 1.5 to 1.8 nM in data set [8] and 1.2 to 1.3 nM in data set [9]. The inhibition entry in the data set with MDA-MB-231 [2] was “Active”. In addition, in [10], the viability at 12 h, 10 µM was in the range of 75 to 80%. Also, the viability at 24 h, 10 µM in data set [11] lay within 60 to 63%. As for `OB(O)c1cccc(-c2nc3ccc4[nH]ncc4c3c3c2CCCC3)c1`, the inhibition entry in data set [1] is “Active”. For the molecule `c1cc(-c2nc3ccc4[nH]ncc4c3c3c2CCCC3)cs1`, the inhibition result in [1] was “Active”. In data set [1], `COc1c(B(O)O)cccc1-c1cc(-c2cc(F)cc(F)c2)c2c(ccc3[nH]ncc32)n1` yielded an inhibition of 10 to 15%. Same read-out and setting: the same measure for `c1nc2ccc3[nH]ncc3c2c2c1CCCC2`: 10 to 15%. On the same count and under the same terms, the same measure for `COc1ccc(-c2nc3ccc4[nH]ncc4c3c3c2CCCC3)cc1B(O)O`: “Active”; for `c1csc(-c2nc3ccc4[nH]ncc4c3c3c2CCCC3)c1`: “Active”.
